{"source": "patent US4200631A", "about": "“Treating mammalian subject sensitive to indomethacin ulcerogenisis” (priority 1978, dated 1980)", "details": "rat, in vivo, po"}
{"molecule": "COc1ccc2c(c1)c(CC(=O)O)c(C)n2C(=O)c1ccc(Cl)cc1", "note": "[Indomethacin]", "values": [{"measurement": "Therapeutical index LD50/ED50 (B)", "result": 8.9}]}
